Values quoted from earlier work in US20190125685A1, “COMPOSITE CAPSULE PREPARATION CONTAINING TADALAFIL AND TAMSULOSIN AND HAVING IMPROVED STABILITY AND ELUTION RATE” (HANMI PHARM. CO., LTD., priority 2016, published 2019).

Conditions: in vivo

## CN1CC(=O)N2[C@H](c3ccc4c(c3)OCO4)c3[nH]c4ccccc4c3C[C@@H]2C1=O [Tadalafil]
  Half-life relative to that of sildenafil or vardenafil: ≥ 3 times
